Results from patent US20100227858A1, “TRISUBSTITUTED PYRIMIDINE DERIVATIVES FOR THE TREATMENT OF PROLIFERATIVE DISEASES” (ASTRAZENECA AB, priority 2007, published 2010).

biological target: recombinant mTOR (Homo sapiens, UniProt P42345); test: In vitro mTOR kinase assay, Test (a)(i) (AlphaScreen); assay type: biochemical; conditions: enzyme assay; values may represent the average of two or more measurements; read-out: Test (a)(i) IC50
Experimental: (a)(i) In Vitro mTOR Kinase Assay
The HEK293 FLAG-tagged mTOR (1362-2549) stable cell line was routinely maintained at 37° C. with 5% CO2 up to a confluency of 70-90% in Dulbecco's modified Eagle's growth medium (DMEM; Invitrogen Limited, Paisley, UK Catalogue No. 41966-029) containing 10% heat-inactivated foetal calf serum (FCS; Sigma, Poole, Dorset, UK, Catalogue No. F0392), 1% L-glutamine (Gibco, Catalogue No. 25030-024) and 2 mg/ml Geneticin (G418 sulfate; Invitrogen Limited, UK Catalogue No. 10131-027). Following expression in the mammalian HEK293 cell line, expressed protein was purified using the FLAG epitope tag using standard purification techniques.
A 30 μl mixture of recombinant purified mTOR enzyme, 1 μM biotinylated peptide substrate (Biotin-Ahx-[…]NH2; Bachem UK Ltd), ATP (20 μM) and a buffer solution [comprising Tris-HCl pH7.4 buffer (50 mM), EGTA (0.1 mM), bovine serum albumin (0.5 mg/mL), DTT (1.25 mM) and manganese chloride (10 mM)] was agitated at room temperature for 90 minutes.
These assay solutions were incubated for 2 hours at room temperature.
Phosphorylated biotinylated peptide is formed in situ as a result of mTOR mediated phosphorylation. The phosphorylated biotinylated peptide that is associated with AlphaScreen Streptavidin donor beads forms a complex with the p70 S6 Kinase (T389) 1A5 Monoclonal Antibody that is associated with Alphascreen Protein A acceptor beads. […] Accordingly, the presence of mTOR kinase activity results in an assay signal. In the presence of an mTOR kinase inhibitor, signal strength is reduced.

recombinant mTOR, sequence (P42345 1362-2549): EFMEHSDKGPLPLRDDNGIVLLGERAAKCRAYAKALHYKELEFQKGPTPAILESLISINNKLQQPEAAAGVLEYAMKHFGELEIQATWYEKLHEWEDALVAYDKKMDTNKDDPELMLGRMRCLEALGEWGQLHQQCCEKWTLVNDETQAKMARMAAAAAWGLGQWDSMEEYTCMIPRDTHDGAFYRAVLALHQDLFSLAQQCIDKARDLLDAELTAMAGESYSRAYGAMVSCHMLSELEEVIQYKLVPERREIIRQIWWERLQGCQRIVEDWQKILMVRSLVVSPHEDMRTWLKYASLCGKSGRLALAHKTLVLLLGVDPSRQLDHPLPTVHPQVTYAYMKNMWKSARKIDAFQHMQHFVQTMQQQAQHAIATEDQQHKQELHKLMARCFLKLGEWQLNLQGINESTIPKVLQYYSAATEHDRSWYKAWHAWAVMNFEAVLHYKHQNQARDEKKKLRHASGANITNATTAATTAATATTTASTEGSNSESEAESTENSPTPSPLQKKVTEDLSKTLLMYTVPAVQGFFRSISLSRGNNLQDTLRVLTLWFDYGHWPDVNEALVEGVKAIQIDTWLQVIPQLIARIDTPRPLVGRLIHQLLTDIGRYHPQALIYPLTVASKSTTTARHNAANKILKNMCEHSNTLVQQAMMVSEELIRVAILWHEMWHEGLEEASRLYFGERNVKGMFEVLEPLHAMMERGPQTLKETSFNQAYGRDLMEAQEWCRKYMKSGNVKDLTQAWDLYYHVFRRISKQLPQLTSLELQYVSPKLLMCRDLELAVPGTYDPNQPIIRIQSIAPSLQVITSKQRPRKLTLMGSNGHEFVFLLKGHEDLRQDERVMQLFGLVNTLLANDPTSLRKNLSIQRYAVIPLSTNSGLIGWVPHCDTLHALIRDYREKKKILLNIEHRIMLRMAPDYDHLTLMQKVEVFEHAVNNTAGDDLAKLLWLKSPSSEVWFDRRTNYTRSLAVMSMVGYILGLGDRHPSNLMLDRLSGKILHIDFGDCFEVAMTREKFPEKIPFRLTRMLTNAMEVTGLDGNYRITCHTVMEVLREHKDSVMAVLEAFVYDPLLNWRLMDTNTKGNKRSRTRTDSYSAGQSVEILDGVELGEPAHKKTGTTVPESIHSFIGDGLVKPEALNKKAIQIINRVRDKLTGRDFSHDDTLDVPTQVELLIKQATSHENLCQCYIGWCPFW

Structure (SMILES)	IC50 [µM]
COc1ccc(C(=O)Nc2nc(N3CCOC[C@@H]3C)cc(N3CCOC[C@@H]3C)n2)cc1 [Example 1, N-[4,6-Bis[(3S)-3-methylmorpholin-4-yl]pyrimidin-2-yl]-4-methoxy-benzamide]	4.65
COc1ccc(C(=O)Nc2cc(N3CCOC[C@@H]3C)nc(N3CCOC[C@@H]3C)n2)cc1C(F)(F)F [Example 2, N-[2,6-Bis[(3S)-3-methylmorpholin-4-yl]pyrimidin-4-yl]-4-methoxy-3-(trifluoromethyl)benzamide]	0.236
COc1cccc(C(=O)Nc2cc(N3CCOC[C@@H]3C)nc(N3CCOC[C@@H]3C)n2)c1 [Example 3, N-[2,6-Bis[(3S)-3-methylmorpholin-4-yl]pyrimidin-4-yl]-3-methoxy-benzamide]	0.234
COc1ccc(C(=O)Nc2nc(N3CCOC[C@@H]3C)cc(N3CCOC[C@@H]3C)n2)cc1C(F)(F)F [Example 4, N-[4,6-Bis[(3S)-3-methylmorpholin-4-yl]pyrimidin-2-yl]-4-methoxy-3-(trifluoromethyl)benzamide]	0.442
COc1cccc(C(=O)Nc2nc(N3CCOC[C@@H]3C)cc(N3CCOC[C@@H]3C)n2)c1 [Example 5, N-[4,6-Bis[(3S)-3-methylmorpholin-4-yl]pyrimidin-2-yl]-3-methoxy-benzamide]	0.364
COc1ccc(C(=O)Nc2nc(N3CCOC[C@@H]3C)cc(N3CCOC[C@@H]3C)n2)cn1 [Example 6, N-[4,6-Bis[(3S)-3-methylmorpholin-4-yl]pyrimidin-2-yl]-6-methoxy-pyridine-3-carboxamide]	2.68
COc1cc(C(=O)Nc2cc(N3CCOC[C@@H]3C)nc(N3CCOC[C@@H]3C)n2)ccn1 [Example 7, N-[2,6-Bis[(3S)-3-methylmorpholin-4-yl]pyrimidin-4-yl]-2-methoxy-pyridine-4-carboxamide]	2.84
CC(=O)Nc1ccc(C(=O)Nc2cc(N3CCOC[C@@H]3C)nc(N3CCOC[C@@H]3C)n2)cn1 [Example 8, 6-Acetamido-N-[2,6-bis[(3S)-3-methylmorpholin-4-yl]pyrimidin-4-yl]pyridine-3-carboxamide]	1.78
COc1ccccc1C(=O)Nc1cc(N2CCOC[C@@H]2C)nc(N2CCOC[C@@H]2C)n1 [Example 9, N-[2,6-Bis[(3S)-3-methylmorpholin-4-yl]pyrimidin-4-yl]-2-methoxy-benzamide]	0.894
CC(=O)Nc1cc(C(=O)Nc2cc(N3CCOC[C@@H]3C)nc(N3CCOC[C@@H]3C)n2)ccn1 [Example 10, 2-Acetamido-N-[2,6-bis[(3S)-3-methylmorpholin-4-yl]pyrimidin-4-yl]pyridine-4-carboxamide]	26.4
COc1ccc(C(=O)Nc2cc(N3CCOC[C@@H]3C)nc(N3CCOC[C@@H]3C)n2)cc1F [Example 11, N-[2,6-Bis[(3S)-3-methylmorpholin-4-yl]pyrimidin-4-yl]-3-fluoro-4-methoxy-benzamide]	3.58
COc1cc(C(=O)Nc2nc(N3CCOC[C@@H]3C)cc(N3CCOC[C@@H]3C)n2)ccn1 [Example 12, N-[4,6-Bis[(3S)-3-methylmorpholin-4-yl]pyrimidin-2-yl]-2-methoxy-pyridine-4-carboxamide]	4
CC(=O)Nc1ccc(C(=O)Nc2nc(N3CCOC[C@@H]3C)cc(N3CCOC[C@@H]3C)n2)cn1 [Example 13, 6-Acetamido-N-[4,6-bis[(3S)-3-methylmorpholin-4-yl]pyrimidin-2-yl]pyridine-3-carboxamide]	1.58
COc1ccccc1C(=O)Nc1nc(N2CCOC[C@@H]2C)cc(N2CCOC[C@@H]2C)n1 [Example 14, N-[4,6-Bis[(3S)-3-methylmorpholin-4-yl]pyrimidin-2-yl]-2-methoxy-benzamide]	0.886
CC(=O)Nc1cc(C(=O)Nc2nc(N3CCOC[C@@H]3C)cc(N3CCOC[C@@H]3C)n2)ccn1 [Example 15, 2-Acetamido-N-[4,6-bis[(3S)-3-methylmorpholin-4-yl]pyrimidin-2-yl]pyridine-4-carboxamide]	9.55
